Motor dysfunction and inhibition in vivo data for 37 compounds are collected here from patent publication US12391674B2, “Heterocyclic compounds for the treatment of epilepsy” (OTSUKA PHARMACEUTICAL CO., LTD., priority 2018, dated 2025).

Bounds are passed on as bounds.

In one data set the test system is ICR mice. Briefly: Rotarod test (motor coordination). The data set is classed as in vivo, mouse. Particulars: oral, dose 1 mg/kg, rotarod 1 hour after administration. In outline: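 Motor coordination was assessed in male ICR mice (Japan SLC, Inc., 5-6 weeks old, 8 per group). Animals were first trained to stay for 2 minutes on a rotarod turning at a fixed 15 rpm. One hour after oral dosing, each mouse was placed on a rod accelerating from 4 rpm to 40 rpm over 5 minutes, and latency to fall was recorded for up to 200 seconds. Latencies were expressed relative to the mean of the solvent-treated group.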
A general note: The rotarod test checks motor coordination on a turning rod.
As to `N#Cc1ccc(-c2cnc(Oc3ccccc3)nc2)cn1` [Example 297], the Motor dysfunction result is “A (a coordination disorder of 25% or less)”.

Staying with this data set, now noted: oral, dose 3 mg/kg, rotarod 1 hour after administration.
On to `Cc1ccc(-c2cnc(Oc3ccccc3)nc2)c(N)n1` [Example 64], for which the Motor dysfunction entry is listed as “A (a coordination disorder of 25% or less)”.
On to `O=C1CCC(c2cnc(Oc3ccc(F)cc3)nc2)=NN1` [Example 98], for which the Motor dysfunction result is given as “A (a coordination disorder of 25% or less)”.
On the same count and under the same terms, the same measure for `N#Cc1ccc(-c2cnc(Oc3ccccc3)nc2)nc1` [Example 349]: “A (a coordination disorder of 25% or less)”.

The same data set, now with this note: oral, dose 5 mg/kg, rotarod 1 hour after administration.
On to `FC(F)(F)c1cn2ccc(-c3cnc(Oc4ccccc4)nc3)cc2n1` [Example 216], for which the Motor dysfunction entry was “A (a coordination disorder of 25% or less)”.
For the compound `c1ccc(Oc2ncc(-c3ccc4cnnn4c3)cn2)cc1` [Example 173, 6-(2-Phenoxypyrimidin-5-Yl)-[1,2,3]Triazolo[1,5-a]Pyridine], the Motor dysfunction result is “A (a coordination disorder of 25% or less)”.
Same read-out and setting: the same measure for `c1ccc(Oc2ncc(-c3ccnc4ccccc34)cn2)cc1` [Example 118, 4-(2-Phenoxypyrimidin-5-Yl) Quinoline]: “A (a coordination disorder of 25% or less)”; for `c1ccc(Oc2ncc(-c3ccn4nccc4n3)cn2)cc1` [Example 134]: “B (a coordination disorder of more than 25% and 50% or less)”; for `[O-][n+]1cccc(-c2cnc(Oc3ccccc3)nc2)c1` [Example 11, 3-(2-Phenoxypyrimidin-5-Yl)Pyridine 1-Oxide]: “A (a coordination disorder of 25% or less)”.
Same read-out and setting: the same measure for `COc1ccc(-c2cnc(Oc3ccccc3)nc2)nn1` [Example 1, 3-Methoxy-6-(2-Phenoxypyrimidin-5-Yl)Pyridazine]: “A (a coordination disorder of 25% or less)”; for `c1ccc(Oc2ncc(-c3ccn4nncc4c3)cn2)cc1` [Example 184]: “A (a coordination disorder of 25% or less)”; for `O=c1cnc2cc(-c3cnc(Oc4ccccc4)nc3)ccc2[nH]1` [Example 256]: “A (a coordination disorder of 25% or less)”.
Still for that read-out and setting: in the case of `c1ccc(Oc2ncc(-c3cccc4cnccc34)cn2)cc1` [Example 248] it was “A (a coordination disorder of 25% or less)”; in that of `Cc1cc(-c2cnc(Oc3ccccc3)nc2)ccn1` [Example 22], “A (a coordination disorder of 25% or less)”.
On to `O=c1[nH]nccc1-c1cnc(Oc2ccccc2)nc1` [Example 114, 4-(2-Phenoxypyrimidin-5-Yl)Pyridazin-3 (2H)-One], for which the Motor dysfunction result is on record as “A (a coordination disorder of 25% or less)”.
On the same count and under the same terms, the same measure for `O=C1CCC(c2cnc(Oc3ccccc3)nc2)=NN1` [Example 92, 6-(2-Phenoxypyrimidin-5-Yl)-4,5-Dihydropyridazin-3 (2H)-One]: “A (a coordination disorder of 25% or less)”; for `c1ccc(Oc2ncc(-c3ccn4ccnc4c3)cn2)cc1` [Example 127]: “B (a coordination disorder of more than 25% and 50% or less)”.
Turning to `Nc1ccc(-c2cnc(Oc3ccccc3F)nc2)nn1` [Example 26], the Motor dysfunction result is reported as “A (a coordination disorder of 25% or less)”.
Turning to `COc1ccc(-c2cnc(Oc3ccccc3)nc2)cn1` [Example 6, 5-(6-Methoxypyridin-3-Yl)-2-Phenoxypyrimidine], the Motor dysfunction result is “A (a coordination disorder of 25% or less)”.
On the same count and under the same terms, in the case of `FC(F)(F)c1cc(-c2cnc(Oc3ccccc3)nc2)ccn1` [Example 299] it was “A (a coordination disorder of 25% or less)”.
As for `Nc1ccc(-c2cnc(Oc3cccnc3)nc2)cn1` [Example 90], the Motor dysfunction result is recorded as “A (a coordination disorder of 25% or less)”.
On the same count and under the same terms, in the case of `Fc1ccccc1Oc1ncc(-c2ccc3nccn3c2)cn1` [Example 121] it was “A (a coordination disorder of 25% or less)”.
With `FC(F)(F)Oc1cccc(Oc2ncc(-c3ccc4nccn4c3)cn2)c1` [Example 171], the Motor dysfunction entry is given as “A (a coordination disorder of 25% or less)”.
Still for that read-out and setting: in the case of `FC(F)(F)c1cccc(Oc2ncc(-c3ccc4nccn4c3)cn2)c1` [Example 170] it was “A (a coordination disorder of 25% or less)”.

Staying with this data set, now noted: oral, dose 10 mg/kg, rotarod 1 hour after administration.
Regarding `Cc1ccc(-c2cnc(Oc3ccccc3)nc2)nn1` [Example 2], the Motor dysfunction entry is on record as “A (a coordination disorder of 25% or less)”.
As for `N#Cc1cccc(-c2cnc(Oc3ccccc3)nc2)n1` [Example 350], the Motor dysfunction entry is “A (a coordination disorder of 25% or less)”.

The same data set, now with this note: oral, dose 30 mg/kg, rotarod 1 hour after administration.
Regarding `FC(F)(F)c1ccnc(-c2cnc(Oc3ccccc3)nc2)n1` [Example 300], the Motor dysfunction entry is on record as “A (a coordination disorder of 25% or less)”.
`c1ccc(Oc2ncc(-c3ccc4c(c3)OCO4)cn2)cc1` [Example 236]: the Motor dysfunction entry was “A (a coordination disorder of 25% or less)”.
On the same count and under the same terms, the same measure for `c1ccc(Oc2ncc(-c3ccn4cnnc4c3)cn2)cc1` [Example 211]: “B (a coordination disorder of more than 25% and 50% or less)”.
On to `c1ccc(Oc2ncc(-c3cn4ccnc4cn3)cn2)cc1` [Example 148], for which the Motor dysfunction entry is given as “A (a coordination disorder of 25% or less)”.
The same measure, in the same setting: in the case of `O=C1CCN(c2ccc(Oc3ccccc3)nn2)C(=O)N1` [Example 347, 1-(6-Phenoxypyridazin-3-Yl)Dihydropyrimidine-2,4 (1H,3H)-Dione] it was “A (a coordination disorder of 25% or less)”; in that of `CCC1CC(=O)NC(=O)N1c1ccc(Oc2ccccc2)cc1` (centres unmarked) [Example 343, 6-Ethyl-1-(4-Phenoxyphenyl)Dihydropyrimidine-2,4 (1H,3H)-Dione], “A (a coordination disorder of 25% or less)”.
The same measure, in the same setting: in the case of `O=C1CCc2cc(-c3cnc(Oc4ccccc4)nc3)ccc2N1` [Example 245] it was “A (a coordination disorder of 25% or less)”.
The same measure, in the same setting: in the case of `N#Cc1cccc(-c2cnc(Oc3ccccc3)nc2)c1` [Example 237] it was “A (a coordination disorder of 25% or less)”; in that of `O=C1CCN(c2ccc(Cc3cccc(F)c3)cc2)C(=O)N1` [Example 305, 1-(4-(3-Fluorobenzyl)Phenyl)Dihydropyrimidine-2,4 (1H,3H)-Dione], “A (a coordination disorder of 25% or less)”.
In the case of `O=C1CCN(c2ccc(Oc3cccc(F)c3)nc2)C(=O)N1` [Example 332], the Motor dysfunction entry is reported as “A (a coordination disorder of 25% or less)”.
In the case of `c1ccc(Oc2ncc(-c3ccc4ncccc4n3)cn2)cc1` [Example 143], the Motor dysfunction entry is listed as “A (a coordination disorder of 25% or less)”.

The next data set concerns DBA/2 mice. Briefly: Audiogenic seizure model. It counts as in vivo. The conditions noted are these: Mus musculus; DBA/2 mice, oral, dose 1 mg/kg, auditory stimulation 1 hour after administration; read-out: Seizure suppression. Summed up:
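Male and female DBA/2 mice (3 weeks old, 8/group) dosed orally at 30 mg/kg in 5% gum arabic; 1 h later exposed to 12.6 kHz, 100-110 dB tone for 1 min or until tonic seizure. Maximum seizure score (0–4) recorded; suppression rate graded A (≥90%), B (70–<90%), C (50–<70%).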
With `N#Cc1ccc(-c2cnc(Oc3ccccc3)nc2)cn1` [Example 297], the inhibition in vivo at 1 mg/kg was > 90%.

The data set is the same for the next values; noted with them: Mus musculus; DBA/2 mice, oral, dose 3 mg/kg, auditory stimulation 1 hour after administration; read-out: Seizure suppression.
With `Cc1ccc(-c2cnc(Oc3ccccc3)nc2)c(N)n1` [Example 64], the inhibition in vivo at 3 mg/kg is > 90%.
The same measure, in the same setting: the same measure for `O=C1CCC(c2cnc(Oc3ccc(F)cc3)nc2)=NN1` [Example 98]: > 90%; for `N#Cc1ccc(-c2cnc(Oc3ccccc3)nc2)nc1` [Example 349]: > 90%.

The same data set, now with this note: Mus musculus; DBA/2 mice, oral, dose 5 mg/kg, auditory stimulation 1 hour after administration; read-out: Seizure suppression.
For the compound `FC(F)(F)c1cn2ccc(-c3cnc(Oc4ccccc4)nc3)cc2n1` [Example 216], the inhibition in vivo at 5 mg/kg is > 90%.
On to `c1ccc(Oc2ncc(-c3ccc4cnnn4c3)cn2)cc1` [Example 173, 6-(2-Phenoxypyrimidin-5-Yl)-[1,2,3]Triazolo[1,5-a]Pyridine], for which the inhibition in vivo at 5 mg/kg was > 90%.
On the same count and under the same terms, in the case of `c1ccc(Oc2ncc(-c3ccnc4ccccc34)cn2)cc1` [Example 118, 4-(2-Phenoxypyrimidin-5-Yl) Quinoline] it was 70 to 90%.
On to `c1ccc(Oc2ncc(-c3ccn4nccc4n3)cn2)cc1` [Example 134], for which the inhibition in vivo at 5 mg/kg was > 90%.
On the same count and under the same terms, the same measure for `[O-][n+]1cccc(-c2cnc(Oc3ccccc3)nc2)c1` [Example 11, 3-(2-Phenoxypyrimidin-5-Yl)Pyridine 1-Oxide]: > 90%; for `COc1ccc(-c2cnc(Oc3ccccc3)nc2)nn1` [Example 1, 3-Methoxy-6-(2-Phenoxypyrimidin-5-Yl)Pyridazine]: > 90%; for `c1ccc(Oc2ncc(-c3ccn4nncc4c3)cn2)cc1` [Example 184]: > 90%.
On the same count and under the same terms, the same measure for `O=c1cnc2cc(-c3cnc(Oc4ccccc4)nc3)ccc2[nH]1` [Example 256]: 70 to 90%; for `c1ccc(Oc2ncc(-c3cccc4cnccc34)cn2)cc1` [Example 248]: > 90%; for `Cc1cc(-c2cnc(Oc3ccccc3)nc2)ccn1` [Example 22]: > 90%.
`O=c1[nH]nccc1-c1cnc(Oc2ccccc2)nc1` [Example 114, 4-(2-Phenoxypyrimidin-5-Yl)Pyridazin-3 (2H)-One]: the inhibition in vivo at 5 mg/kg is > 90%.
As to `O=C1CCC(c2cnc(Oc3ccccc3)nc2)=NN1` [Example 92, 6-(2-Phenoxypyrimidin-5-Yl)-4,5-Dihydropyridazin-3 (2H)-One], the inhibition in vivo at 5 mg/kg was > 90%.
With `c1ccc(Oc2ncc(-c3ccn4ccnc4c3)cn2)cc1` [Example 127], the inhibition in vivo at 5 mg/kg is > 90%.
Same read-out and setting: the same measure for `Nc1ccc(-c2cnc(Oc3ccccc3F)nc2)nn1` [Example 26]: > 90%; for `COc1ccc(-c2cnc(Oc3ccccc3)nc2)cn1` [Example 6, 5-(6-Methoxypyridin-3-Yl)-2-Phenoxypyrimidine]: > 90%.
In the case of `FC(F)(F)c1cc(-c2cnc(Oc3ccccc3)nc2)ccn1` [Example 299], the inhibition in vivo at 5 mg/kg is > 90%.
Same read-out and setting: the same measure for `Nc1ccc(-c2cnc(Oc3cccnc3)nc2)cn1` [Example 90]: 70 to 90%.
On the same count and under the same terms, the same measure for `Fc1ccccc1Oc1ncc(-c2ccc3nccn3c2)cn1` [Example 121]: > 90%; for `FC(F)(F)Oc1cccc(Oc2ncc(-c3ccc4nccn4c3)cn2)c1` [Example 171]: > 90%; for `FC(F)(F)c1cccc(Oc2ncc(-c3ccc4nccn4c3)cn2)c1` [Example 170]: > 90%.

Still in this data set, the particulars now being: Mus musculus; DBA/2 mice, oral, dose 10 mg/kg, auditory stimulation 1 hour after administration; read-out: Seizure suppression.
With `N#Cc1cccc(-c2cnc(Oc3ccccc3)nc2)n1` [Example 350], the inhibition in vivo at 10 mg/kg is > 90%.

The same data set, now with this note: Mus musculus; DBA/2 mice, oral, dose 30 mg/kg, auditory stimulation 1 hour after administration; read-out: Seizure suppression.
In the case of `FC(F)(F)c1ccnc(-c2cnc(Oc3ccccc3)nc2)n1` [Example 300], the inhibition in vivo at 30 mg/kg is > 90%.
Same read-out and setting: the same measure for `c1ccc(Oc2ncc(-c3ccc4c(c3)OCO4)cn2)cc1` [Example 236]: > 90%.
For `c1ccc(Oc2ncc(-c3ccn4cnnc4c3)cn2)cc1` [Example 211], the inhibition in vivo at 30 mg/kg is > 90%.
Same read-out and setting: the same measure for `c1ccc(Oc2ncc(-c3cn4ccnc4cn3)cn2)cc1` [Example 148]: > 90%.
With `O=C1CCN(c2ccc(Oc3ccccc3)nn2)C(=O)N1` [Example 347, 1-(6-Phenoxypyridazin-3-Yl)Dihydropyrimidine-2,4 (1H,3H)-Dione], the inhibition in vivo at 30 mg/kg is > 90%.
Turning to `CCC1CC(=O)NC(=O)N1c1ccc(Oc2ccccc2)cc1` (centres unmarked) [Example 343, 6-Ethyl-1-(4-Phenoxyphenyl)Dihydropyrimidine-2,4 (1H,3H)-Dione], the inhibition in vivo at 30 mg/kg is > 90%.
For the compound `O=C1CCc2cc(-c3cnc(Oc4ccccc4)nc3)ccc2N1` [Example 245], the inhibition in vivo at 30 mg/kg was > 90%.
The same measure, in the same setting: the same measure for `Cc1ccc(-c2cnc(Oc3ccccc3)nc2)nn1` [Example 2]: > 90%.
Still for that read-out and setting: the same measure for `N#Cc1cccc(-c2cnc(Oc3ccccc3)nc2)c1` [Example 237]: > 90%; for `O=C1CCN(c2ccc(Cc3cccc(F)c3)cc2)C(=O)N1` [Example 305, 1-(4-(3-Fluorobenzyl)Phenyl)Dihydropyrimidine-2,4 (1H,3H)-Dione]: > 90%; for `O=C1CCN(c2ccc(Oc3cccc(F)c3)nc2)C(=O)N1` [Example 332]: 70 to 90%.
The same measure, in the same setting: the same measure for `c1ccc(Oc2ncc(-c3ccc4ncccc4n3)cn2)cc1` [Example 143]: > 90%.
